Measurements: article PMC3185947 (British Journal of Cancer, 2011)
Like-named read-outs stand apart in the source and are kept apart here.

Experiments:
[1] = system: previously treated advanced non-small cell lung cancer (NSCLC)
Experimental: (§1) In the initial stage, we assessed the feasibility of intrapatient dose escalation from 150 mg per day to a maximal level of tolerable skin toxicity, which was defined as the TR. This objective was determined to be feasible if patients developed a TR in the absence of non-cutaneous dose-limiting toxicity (DLT). […] Skin toxicity was graded according to the following scale that was based on patient tolerability:
(§2) In the absence of both a TR and non-cutaneous DLT, the dose was increased in each patient to 200 mg per day, and then in 25 mg per day increments every 14 days. […] Toxicities were graded according to the National Cancer Institute Common Toxicity Criteria (NCI CTC), Version 2.0, except for skin toxicity.
Tumour assessments were performed using the Response Evaluation Criteria in Solid Tumours using computerised tomographic scanning or magnetic resonance imaging pretreatment and every 6–8 weeks during treatment ([Therasse et al, 2000]).

[2] = Plasma pharmacokinetics of erlotinib and OSI-420 (HPLC, non-compartmental); settings: erlotinib dose 425 mg m^−2, 1 patient;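 note: pharmacokinetic parameters derived by non-compartmental analysis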
Text: PK parameters were estimated by non-compartmental methods (WinNonlin v.3.1, Pharsight Corp., Mountain View, CA, USA).

[3] = system: patients with previously treated advanced NSCLC
Experimental: as §1, §2
Doses were reduced in 25 mg per day decrements for toxicity. The initial systemic intervention for symptomatic skin toxicity was minocycline 100–150 mg twice daily for at least 7 days, and the initiation of treatment with minocycline for symptomatic rash was at the discretion of the investigator.

[4] = system: patients with previously treated advanced NSCLC; experiment: Erlotinib-related toxicities (worst grade per patient), NCI CTC Version 2.0; type: in vivo, human

## C#Cc1cccc(Nc2ncnc3cc(OCCOC)c(OCCOC)cc23)c1 [erlotinib]
[1]; All patients
  Disease control (CR+PR+SD): No. of patients with CR+PR+s.d./total no. of patients: 24/42
  Disease control (CR+PR+SD): Response rate (95% CI): 57.1 (41.0, 72.3)
  Objective responses (CR+PR): No. of patients with PR+CR/total no. of patients: 5/42
  Objective responses (CR+PR): Response rate (95% CI): 11.9 (4.0, 25.6)
[1]; Target rash feasible
  Disease control (CR+PR+SD): No. of patients with CR+PR+s.d./total no. of patients: 15/24
  Disease control (CR+PR+SD): Response rate (95% CI): 62.5 (40.6, 81.2)
  Objective responses (CR+PR): No. of patients with PR+CR/total no. of patients: 5/24
  Objective responses (CR+PR): Response rate (95% CI): 20.8 (7.1, 42.2)
[1]; Target rash not feasible
  Disease control (CR+PR+SD): No. of patients with CR+PR+s.d./total no. of patients: 9/18
  Disease control (CR+PR+SD): Response rate (95% CI): 50.0 (26.0, 74.0)
  Objective responses (CR+PR): No. of patients with PR+CR/total no. of patients: 0/18
  Objective responses (CR+PR): Response rate (95% CI): 0.0 (N/A)
[1]; all patients, 95% CI: 1.61–4.14
  Median progression-free survival (PFS): 2.3 months
[1]; five of 42 patients, 95% CI: 4.0–25.6
  Patients with a partial response (PR): 12%
[1]; five patients with PR, range, 5–76
  Median time to initial response: 6 weeks
[1]; nineteen of 42 patients
  Patients with stable disease: 45%
[1]; patients who did not experience a TR, 95% CI: 1.54, 4.14
  Median PFS: 1.9 months
[1]; patients who experienced a TR, 95% CI: 1.61, 6.97
  Median PFS: 3.5 months
[1]; patients who had TR
  Reduction in the risk of disease progression or death: 49%
[1]; patients with PR as best response, range, 5.2 to 66+
  PFS: 12 months
[1]; patients with SD as best response, range, 1.2–14.0
  PFS: 4.7 months
[1]; patients with progressive disease as best response, range, 1.2–1.9
  PFS: 1.4 months
[2]
  Erlotinib Tmax: 4.0 h
[3]; 10 of 42 patients
  Patients with pain associated with skin toxicity: 24%
[3]; 11 of 42 patients
  Patients with urticaria as dominant feature of rash: 26%
[3]; 12 of 42 patients
  Patients in whom the rash resembled rosacea: 29%
[3]; 16 of 42 patients
  Patients with desquamation as dominant feature of rash: 38%
[3]; 19 of 24 patients with TR
  Patients with a TR who developed it at the initial 150 mg per day dose level: 79%
[3]; 24 of 42 patients, TR = grade 2 tolerable rash requiring minocycline
  Patients who developed a target rash (TR): 57%
[3]; 28 of 42 patients
  Patients with pruritus associated with skin toxicity: 67%
[3]; 41 of 42 patients
  Patients who developed skin toxicity: 98%
[3]; 42 patients
  Patients discontinued from the study due to skin toxicity: No patient
[3]; first stage of the study
  Initial patients (first stage) who developed a TR: 10 of the 11 initial patients
[3]; five of 24 patients with TR
  Patients with a TR who experienced it only after dose escalation: 21%
[3]; of 42 patients
  Patients who experienced a grade 3 rash: Six
[3]; principally due to intolerable skin toxicity despite supportive measures
  Dosing range above which erlotinib doses could not be increased in most patients: 250–300 mg per day
[3]; three of 24 patients with TR
  Patients with a TR who developed it following escalation to 200 mg per day: 13%
[3]; two of 24 patients with TR
  Patients with a TR who developed it following escalation to 225 mg per day: 8%
[4]; Total (N=42)
  Alopecia, grade 3–4: 0 (0) n (%)
  Alopecia, grade Any: 6 (14) n (%)
  Anorexia, grade 3–4: 1 (2) n (%)
  Anorexia, grade Any: 11 (26) n (%)
  Creatinine, grade 3–4: 1 (2) n (%)
  Creatinine, grade Any: 1 (2) n (%)
  Diarrhea, grade 3–4: 1 (2) n (%)
  Diarrhea, grade Any: 33 (79) n (%)
  Epistaxis, grade 3–4: 0 (0) n (%)
  Epistaxis, grade Any: 5 (12) n (%)
  Fatigue, grade 3–4: 3 (7) n (%)
  Fatigue, grade Any: 17 (40) n (%)
  Headache, grade 3–4: 1 (2) n (%)
  Headache, grade Any: 1 (2) n (%)
  Nausea, grade 3–4: 0 (0) n (%)
  Nausea, grade Any: 22 (52) n (%)
  Paronychia, grade 3–4: 1 (2) n (%)
  Paronychia, grade Any: 5 (12) n (%)
  Skin fissures, grade 3–4: 1 (2) n (%)
  Skin fissures, grade Any: 5 (12) n (%)
  Stomatitis, grade 3–4: 0 (0) n (%)
  Stomatitis, grade Any: 14 (33) n (%)
  Vomiting, grade 3–4: 0 (0) n (%)
  Vomiting, grade Any: 15 (36) n (%)
[4]; all 42 patients
  Diarrhea, frequency: 79%
  Fatigue, frequency: 40%
  Nausea, frequency: 52 % of patients
  Stomatitis, frequency: 33%
  Vomiting, frequency: 36%
[4]; erlotinib 100–150 mg (N=4)
  Alopecia, grade 3–4: 0 (0) n (%)
  Alopecia, grade Any: 0 (0) n (%)
  Anorexia, grade 3–4: 0 (0) n (%)
  Anorexia, grade Any: 2 (50) n (%)
  Creatinine, grade 3–4: 0 (0) n (%)
  Creatinine, grade Any: 0 (0) n (%)
  Diarrhea, grade 3–4: 0 (0) n (%)
  Diarrhea, grade Any: 4 (100) n (%)
  Epistaxis, grade 3–4: 0 (0) n (%)
  Epistaxis, grade Any: 0 (0) n (%)
  Fatigue, grade 3–4: 0 (0) n (%)
  Fatigue, grade Any: 3 (75) n (%)
  Headache, grade 3–4: 0 (0) n (%)
  Headache, grade Any: 0 (0) n (%)
  Nausea, grade 3–4: 0 (0) n (%)
  Nausea, grade Any: 3 (75) n (%)
  Paronychia, grade 3–4: 0 (0) n (%)
  Paronychia, grade Any: 0 (0) n (%)
